The values below come from patent US11376326B2, “GPC3-targeting therapeutic agent which is administered to patient for whom the GPC3-targeting therapeutic agent is effective” (CHUGAI SEIYAKU KABUSHIKI KAISHA, priority 2015, dated 2022).

Like-named read-outs stand apart in the source and are kept apart here.

The test system of experiment [1] is advanced hepatocellular carcinoma. To be noted: cited from earlier work.
The test system is the same in experiment [2]. The conditions noted are these: cited from earlier work. The source holds these as a separate data set.
The test system is the same in experiment [3]. The conditions noted are these: Asian trial; cited from earlier work.
Experiment [4] relates to human cell line HepG2 strongly expressing GPC3. The experiment in a line: Antitumor effect in mouse graft models using HepG2. Format: in vivo. To be noted: HepG2 graft mice; GC33 or ag-GC33 5 mg/kg tail vein once a week x3; sorafenib 5 mg/kg oral five times a week for 3 weeks; from day 18; FIG. 1. The protocol: GC33 or ag-GC33 was administered at 5 mg/kg to the tail vein of each mouse once a week a total of three times from 18 days after HepG2 transplantation. Sorafenib was orally administered at 5 mg/kg to each mouse five times a week for 3 weeks from 18 days after HepG2 transplantation.

The test system of a further experiment is sGPC3-N. The experiment in a line: sGPC3-N in mouse plasma by ELISA (GT30/GT607) at completion of antitumor evaluation. The experiment is classed as in vivo. To be noted: HepG2 graft mice, FIG. 2. The protocol:
(§1) At the completion of the antitumor effect evaluation, plasma was collected from each mouse. Fragments of a soluble form of GPC3 were assayed by two types of ELISA methods differing in the combination of anti-GPC3 antibodies. In order to detect the fragments of a soluble form of GPC3 in ELISA, mouse monoclonal antibodies binding to the N-terminal subunit of human GPC3 were prepared as described in WO2004/022739. Hereinafter, the obtained antibodies are referred to as GT30 and GT607 for the sake of convenience. Also, mouse monoclonal antibodies binding to the C-terminal subunit of human GPC3 were prepared as described in WO2004/022739. Hereinafter, the obtained antibodies are referred to as GT96 and M3C11 for the sake of convenience. […]
(§2) Specifically, the detection of sGPC3-N and the detection of sGPC3-C by ELISA were performed as follows: first, the GT30 antibody diluted to 1 μg/mL with a carbonatebicarbonate buffer (manufactured by Sigma-Aldrich Co., LLC) or the M3C11 antibody adjusted to 128 μg/mL in the same way thereas was added at 50 μL/well to a 96-well microplate (manufactured by Meso Scale Discovery (MSD), Multi-array 96-well plate) and stirred at room temperature for 1 hour. […] After washing five times with a washing solution, a substrate solution (manufactured by Meso Scale Discovery (MSD), MSD Read Buffer T (4×) with Surfactant) was added thereto at 100 μL/well. […]
(In general: An ELISA detects its analyte on a solid surface through an enzyme-linked reagent.)

In another experiment the test system is sGPC3-C. The experiment in a line: sGPC3-C in mouse plasma by ELISA (GT96/M3C11) at completion of antitumor evaluation. To be noted: HepG2 graft mice, FIG. 3. The experiment is classed as in vivo. The protocol:
as §1, §2

For another experiment, the target named is human GPC3 (Homo sapiens, UniProt P51654). The conditions noted are these: cited from earlier work.

Turning to `CNC(=O)c1cc(Oc2ccc(NC(=O)Nc3ccc(Cl)c(C(F)(F)F)c3)cc2)ccn1` [sorafenib], the “HR of survival duration” value in experiment [1] (both trials, versus placebo) was 0.68. In addition, in experiment [1] (in vivo), the objective response rate entry is “low” and the “time to symptomatic progression” value is recorded as “no prolongation”. Also, the “time to tumor radiological progression” value in experiment [2] (European and American trial) is 5.5 months. Moreover, the survival duration in experiment [2] (SHARP trial) is listed as 10.7 months. Further, in experiment [3], the survival duration is 6.5 months and the “time to tumor radiological progression” value was 2.8 months. Moreover, the “tumor enlargement inhibitory effect (tumor volume)” value in experiment [4] is listed as “the tumor enlargement inhibitory effect was weaker than that of GC33”. Moreover, the “sGPC3-N level in plasma” value with sGPC3-N is listed as “equivalent to the GC33 administration group”.
For the compound “GC33: recombinant humanized IgG1 monoclonal antibody binding to human GPC3 with high affinity (WO2006/006693)”, the “sGPC3-C level in plasma” value in the experiment on sGPC3-C was “higher in the GC33 administration group compared with the control group, the ag-GC33 group, and the sorafenib group”. The “binding affinity to human GPC3” value with human GPC3 is recorded as “high affinity”. For the same compound, in experiment [4], the “tumor enlargement inhibitory effect (tumor volume)” value was “tumor enlargement was inhibited as compared with the control group”. Also, the “sGPC3-N level in plasma” value with sGPC3-N is “a lower level of sGPC3-N was found as compared with the control group”.
